{"source": "paper PMC3906678", "about": "(Clinical cancer research : an official journal of the …, 2012)", "key": {"P-AKT Ser473 [1]": {"test_system": "P-AKT Ser473", "conditions": "single-agent, matching biopsies, head and neck cancer patients; cited from earlier work"}, "metastatic melanoma [2]": {"test_system": "metastatic melanoma", "conditions": "temsirolimus; cited from earlier work"}, "P-S6": {"test_system": "P-S6", "conditions": "biopsies from treated patients; cited from earlier work"}, "P-AKT Ser473 [3]": {"test_system": "P-AKT Ser473", "conditions": "biopsies from treated patients; cited from earlier work"}, "[4]": {"conditions": "human, in vivo"}, "metastatic melanoma [5]": {"test_system": "metastatic melanoma", "conditions": "cited from earlier work"}}, "note": "Where two headings read alike, the source gives them in different places."}
{"smiles": "CO[C@H]1C[C@@H]2CC[C@@H](C)[C@@](O)(O2)C(=O)C(=O)N2CCCC[C@H]2C(=O)O[C@H]([C@H](C)C[C@@H]2CC[C@@H](OC(=O)C(C)(CO)CO)[C@H](OC)C2)CC(=O)[C@H](C)/C=C(\\C)[C@@H](O)[C@@H](OC)C(=O)[C@H](C)C[C@H](C)/C=C/C=C/C=C/1C", "note": "[Temsirolimus]", "values": [{"measurement": "Change in P-AKT Ser473", "setting": "P-AKT Ser473 [1]", "value": "lack of increase"}, {"measurement": "Patients who achieved a clinical response", "setting": "metastatic melanoma [2]", "value": "1 of 33"}]}
{"smiles": "CO[C@H]1C[C@@H]2CC[C@@H](C)[C@@](O)(O2)C(=O)C(=O)N2CCCC[C@H]2C(=O)O[C@H]([C@H](C)C[C@@H]2CC[C@@H](OCCO)[C@H](OC)C2)CC(=O)[C@H](C)/C=C(\\C)[C@@H](O)[C@@H](OC)C(=O)[C@H](C)C[C@H](C)/C=C/C=C/C=C/1C", "note": "[everolimus]", "values": [{"measurement": "Change in P-S6", "setting": "P-S6", "value": "decrease"}, {"measurement": "Change in P-AKT Ser473", "setting": "P-AKT Ser473 [3]", "value": "increase"}]}
{"smiles": "CNC(=O)c1cc(Oc2ccc(NC(=O)Nc3ccc(Cl)c(C(F)(F)F)c3)cc2)ccn1", "note": "[Sorafenib]", "values": [{"measurement": "Mean Cmax and Cavg at steady-state on Day 15 compared to Day 1", "setting": "[4]", "value": "2-4 fold"}, {"measurement": "Clinical response rate", "setting": "metastatic melanoma [5]; melanoma patients, sorafenib", "value": 3, "unit": "%"}, {"measurement": "Patients who achieved a clinical response", "setting": "metastatic melanoma [5]; metastatic melanoma patients, sorafenib monotherapy", "value": "one of 37"}]}
